Among the data in US12583858B2 (Genentech, Inc., priority 2015, dated 2026) are EC50 values, retold here.

As usually defined, the EC50 is the concentration at which the effect is half-maximal.

T1 sequence (P48775 whole entry): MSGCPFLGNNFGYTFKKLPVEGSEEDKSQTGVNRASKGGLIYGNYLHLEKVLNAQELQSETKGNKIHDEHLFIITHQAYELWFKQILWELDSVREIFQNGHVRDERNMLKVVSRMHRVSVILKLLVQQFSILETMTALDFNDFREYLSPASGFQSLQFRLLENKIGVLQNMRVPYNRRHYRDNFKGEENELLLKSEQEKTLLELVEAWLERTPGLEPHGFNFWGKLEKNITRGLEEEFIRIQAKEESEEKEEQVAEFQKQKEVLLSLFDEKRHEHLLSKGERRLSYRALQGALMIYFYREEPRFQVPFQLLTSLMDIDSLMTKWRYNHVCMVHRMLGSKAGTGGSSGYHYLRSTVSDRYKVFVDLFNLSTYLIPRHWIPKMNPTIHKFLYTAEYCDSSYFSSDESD

This assay concerns the target T1, TDO2 (Homo sapiens, UniProt P48775).
T1 construct: decreased levels of NFK in SW48 cells (high TDO expressing cells)
In words: TDO2 cell assay (NFK GreenScreen, SW48 cells). The following applies: SW48 cells (high TDO expressing), 200 uM tryptophan, 24 hours; Table 3; read-out: TDO2 Cell Fluor EC50. Type of assay: cell-based.
Method: The NFK GreenScreen™ (NTRC, Netherlands) uses a specific chemical probe that binds to N-Formylkynurenine (NFK), a product of tryptophan catabolism facilitated by IDO or TDO and causes fluorescence at 510 nm when excited at 410 nm. […] The assay is multiplexed with Cell Titer-Glo® (Promega) to determine if compounds are cytotoxic. […] Cells are counted on a Vi-Cell (Beckman Coulter). SW48 cells are diluted to 1×10^6 cells/ml in assay media. A172 cells are diluted to 0.24×10^6 cells/ml in assay media. […] 5 ul of assay media containing 1.2 mM tryptophan are added to the SW48 cells for a final concentration of 200 uM tryptophan in each well. 5 ul of assay media containing 600 uM tryptophan and 600 ng/ml IFNγ are added to the A172 cells for a final concentration of 100 uM tryptophan and 100 ng/ml IFNγ in each well. The final DMSO concentration is 0.5%. Cell plates are placed at room temperature in a closed TC hood with the blower off to allow cells to settle for approximately 30 min. Plates are then moved to an incubator set at 37° C., 5% CO2 for 24 hours. After the 24 hour compound incubation, 8 ul of NFK green reagent is added to each well with a Multidrop™ Combi dispenser (Thermo Scientific). Plates are sealed and incubated at 37° C., 5% CO2 for 5 hours, then read on a PHERAstar® (BMG labtech). Data are analyzed by normalizing to DMSO and high inhibitor controls. After the plates have been read for NFK green, 25 ul of Cell Titer-Glo® (Promega) are added to each well, incubated for 15 minutes at room temperature, and read on the Envision (Perkin Elmer). Cell Titer-Glo data are analyzed by normalizing to the DMSO controls. Four-parameter curve fitting is used and EC50 data are reported.
With `O[C@H]1CCC[C@H]1[C@H]1c2ccccc2-c2cncn21` [Example 02b, (1S,2S)-2-((S)-5H-imidazo[5,1-a]isoindol-5-yl)cyclopentan-1-ol], the EC50 worked out at 0.12 µM.

Regarding `O[C@@H]1CCC[C@@H]1[C@H]1c2ccccc2-c2cncn21` [Example 02c, (1R,2R)-2-((S)-5H-imidazo[5,1-a]isoindol-5-yl)cyclopentan-1-ol], the EC50 amounted to 0.3 µM.

As to `O[C@H]1CCC[C@H]1[C@@H]1c2ccccc2-c2cncn21` [Example 02d, (1S,2S)-2-((R)-5H-imidazo[5,1-a]isoindol-5-yl)cyclopentan-1-ol], the EC50 is 14 µM.

As to `O[C@H]1CCCC[C@H]1[C@H]1c2ccccc2-c2cncn21` [Example 03a, (1S,2S)-2-((S)-5H-imidazo[5,1-a]isoindol-5-yl)cyclohexan-1-ol], the EC50 is 0.077 µM.

Consider `O[C@@H]1CCCC[C@H]1[C@H]1c2ccccc2-c2cncn21` [Example 03b, (1R,2S)-2-((S)-5H-imidazo[5,1-a]isoindol-5-yl)cyclohexan-1-ol], for which the EC50 was determined as 0.083 µM.

In the case of `O[C@H]1CCCC[C@@H]1[C@@H]1c2ccccc2-c2cncn21` [Example 03g, (1S,2R)-2-((R)-5H-imidazo[5,1-a]isoindol-5-yl)cyclohexan-1-ol], the EC50 was 7.6 µM.

For `O[C@@H]1CCCC[C@@H]1[C@@H]1c2ccccc2-c2cncn21` [Example 03h, (1R,2R)-2-((R)-5H-imidazo[5,1-a]isoindol-5-yl)cyclohexan-1-ol], the EC50 was 13 µM.

`O[C@H]1CCOC[C@@H]1[C@@H]1c2ccccc2-c2cncn21` [Example 05a, (3S,4S)-3-((R)-5H-imidazo[5,1-a]isoindol-5-yl)-tetrahydro-2H-pyran-4-ol]: the EC50 was 23 µM.

With `O[C@@H]1CCOC[C@H]1[C@H]1c2ccccc2-c2cncn21` [Example 05b, (3R,4R)-3-((S)-5H-imidazo[5,1-a]isoindol-5-yl)-tetrahydro-2H-pyran-4-ol], the EC50 stood at 0.21 µM.

On to `O[C@@H]1CCOC[C@H]1[C@@H]1c2ccccc2-c2cncn21` [Example 05c, (3R,4R)-3-((R)-5H-imidazo[5,1-a]isoindol-5-yl)-tetrahydro-2H-pyran-4-ol], for which the EC50 was > 25 µM.

For the compound `O[C@H]1CCOC[C@@H]1[C@H]1c2ccccc2-c2cncn21` [Example 05d, (3S,4S)-3-((S)-5H-imidazo[5,1-a]isoindol-5-yl)-tetrahydro-2H-pyran-4-ol], the EC50 is 1 µM.

Consider `O[C@@H]1COCC[C@@H]1[C@@H]1c2ccccc2-c2cncn21` [Example 06e, (3S,4R)-4-((R)-5H-imidazo[5,1-a]isoindol-5-yl)tetrahydro-2H-pyran-3-ol], for which the half-maximal effective concentration (EC50) is > 25 µM.

`O[C@H]1COCC[C@H]1[C@H]1c2ccccc2-c2cncn21` [Example 06f, (3R,4S)-4-((S)-5H-imidazo[5,1-a]isoindol-5-yl)tetrahydro-2H-pyran-3-ol]: the EC50 is 0.9 µM.

Take `O[C@H]1c2cncn2CC[C@@H]1[C@@H]1c2ccccc2-c2cncn21` [Example 07g, (7R,8R)-7-((R)-5H-imidazo[5,1-a]isoindol-5-yl)-5,6,7,8-tetrahydroimidazo[1,5-a]pyridin-8-ol]: the EC50 is > 25 µM.

Consider `O[C@@H]1c2ccncc2CC[C@H]1[C@H]1c2ccccc2-c2cncn21` [Example 08a, (5S,6S)-6-((S)-5H-imidazo[5,1-a]isoindol-5-yl)-5,6,7,8-tetrahydroisoquinolin-5-ol], for which the EC50 is 0.048 µM.

`CC(C)(C)OC(=O)N1CC[C@@H](O)[C@H]([C@H]2c3ccccc3-c3cncn32)C1` [Example 11a, (3S,4R)-tert-butyl 4-hydroxy-3-((S)-5H-imidazo[5,1-a]isoindol-5-yl)piperidine-1-carboxylate]: the EC50 is 15 µM.

On to `CC(C)(C)OC(=O)N1CC[C@H](O)[C@@H]([C@@H]2c3ccccc3-c3cncn32)C1` [Example 11b, (3R,4S)-tert-butyl 4-hydroxy-3-((R)-5H-imidazo[5,1-a]isoindol-5-yl)piperidine-1-carboxylate], for which the EC50 was > 25 µM.

For the compound `CCS(=O)(=O)N1CC[C@H]([C@@H]2c3ccccc3-c3cncn32)[C@@H](O)C1` [Example 16b, (3R,4R)-1-(ethylsulfonyl)-4-((R)-5H-imidazo[5,1-a]isoindol-5-yl)piperidin-3-ol], the EC50 was > 25 µM.

Regarding `CCS(=O)(=O)N1CC[C@H]([C@H]2c3ccccc3-c3cncn32)[C@@H](O)C1` [Example 16c, (3R,4R)-1-(ethylsulfonyl)-4-((S)-5H-imidazo[5,1-a]isoindol-5-yl)piperidin-3-ol], the EC50 came to 5.7 µM.

Take `O[C@H]1CCC(F)(F)C[C@H]1[C@H]1c2ccccc2-c2cncn21` [Example 18a, (1S,2S)-4,4-difluoro-2-((S)-5H-imidazo[5,1-a]isoindol-5-yl)cyclohexan-1-ol]: the EC50 was found to be 0.065 µM.

Take `O[C@@H]1CCC(F)(F)C[C@@H]1[C@@H]1c2ccccc2-c2cncn21` [Example 18e, (1R,2R)-4,4-difluoro-2-((R)-5H-imidazo[5,1-a]isoindol-5-yl)cyclohexan-1-ol]: the EC50 is 7.5 µM.

With `CC1(C)C[C@H](O)[C@@H]1[C@H]1c2ccccc2-c2cncn21` [Example 22a, (1S,2S)-2-((S)-5H-imidazo[5,1-a]isoindol-5-yl)-3,3-dimethylcyclobutan-1-ol], the EC50 was found to be 0.06 µM.

Take `CC1(C)C[C@H](O)[C@H]1[C@@H]1c2ccccc2-c2cncn21` [Example 22c, (1S,2R)-2-((R)-5H-imidazo[5,1-a]isoindol-5-yl)-3,3-dimethylcyclobutan-1-ol]: the EC50 was > 25 µM.

For the compound `CC1(C)C[C@@H](O)[C@H]1[C@@H]1c2ccccc2-c2cncn21` [Example 22e, (1R,2R)-2-((R)-5H-imidazo[5,1-a]isoindol-5-yl)-3,3-dimethylcyclobutan-1-ol], the EC50 was determined as 3.5 µM.

With `N#CCN1CC[C@H]([C@H]2c3ccccc3-c3cncn32)[C@@H](O)C1` [Example 27c, 2-((3R,4R)-3-hydroxy-4-((S)-5H-imidazo[5,1-a]isoindol-5-yl)piperidin-1-yl)acetonitrile], the concentration giving a half-maximal response (EC50) was > 25 µM.

In the case of `O[C@@H]1c2cccnc2CC[C@@H]1[C@@H]1c2ccccc2-c2cncn21` [Example 31a, (5S,6R)-6-((R)-5H-imidazo[5,1-a]isoindol-5-yl)-5,6,7,8-tetrahydroquinolin-5-ol], the EC50 was > 25 µM.

As to `O[C@H]1c2cccnc2CC[C@@H]1[C@H]1c2ccccc2-c2cncn21` [Example 31b, (5R,6R)-6-((S)-5H-imidazo[5,1-a]isoindol-5-yl)-5,6,7,8-tetrahydroquinolin-5-ol], the EC50 was found to be 1.4 µM.

For the compound `O[C@@H]1c2cccnc2CC[C@H]1[C@@H]1c2ccccc2-c2cncn21` [Example 31g, (5S,6S)-6-((R)-5H-imidazo[5,1-a]isoindol-5-yl)-5,6,7,8-tetrahydroquinolin-5-ol], the EC50 was 1.8 µM.

`O[C@H]1c2cccnc2CC[C@H]1[C@H]1c2ccccc2-c2cncn21` [Example 31h, (5R,6S)-6-((S)-5H-imidazo[5,1-a]isoindol-5-yl)-5,6,7,8-tetrahydroquinolin-5-ol]: the EC50 turned out to be 0.12 µM.

Regarding `N[C@@H]1COC[C@@H]1[C@@H]1c2ccccc2-c2cncn21` [Example 32a, (3S,4S)-4-[(5R)-5H-imidazo[4,3-a]isoindol-5-yl]oxolan-3-amine], the EC50 is > 25 µM.

`N[C@H]1COC[C@H]1[C@H]1c2ccccc2-c2cncn21` [Example 32b, (3R,4R)-4-[(5S)-5H-imidazo[4,3-a]isoindol-5-yl]oxolan-3-amine]: the EC50 was determined as 11 µM.

Take `N[C@@H]1COC[C@@H]1[C@H]1c2ccccc2-c2cncn21` [Example 32d, (3S,4S)-4-[(5S)-5H-imidazo[4,3-a]isoindol-5-yl]oxolan-3-amine]: the EC50 was > 25 µM.

For the compound `O[C@@H]1CCOC[C@H]1[C@@H]1c2ccc(F)cc2-c2cncn21` [Example 34d, (3R,4R)-3-((R)-8-fluoro-5H-imidazo[5,1-a]isoindol-5-yl)-tetrahydro-2H-pyran-4-ol], the EC50 was 0.23 µM.

Take `NS(=O)(=O)N1CC[C@@H]([C@H]2c3ccccc3-c3cncn32)[C@H](O)C1` [Example 39a, (3S,4S)-3-hydroxy-4-((S)-5H-imidazo[5,1-a]isoindol-5-yl)piperidine-1-sulfonamide]: the EC50 was > 25 µM.

As for `C[C@@H](O)[C@@H]1c2ccccc2-c2cncn21` [Example 42a, (R)-1-((S)-5H-imidazo[5,1-a]isoindol-5-yl)ethan-1-ol], the EC50 was > 25 µM.

For `C[C@@H](O)[C@H]1c2ccccc2-c2cncn21` [Example 42b, (R)-1-((R)-5H-imidazo[5,1-a]isoindol-5-yl)ethan-1-ol], the EC50 came out at 11.8 µM.

On to `C[C@H](O)[C@@H]1c2ccccc2-c2cncn21` [Example 42d, (S)-1-((S)-5H-imidazo[5,1-a]isoindol-5-yl)ethan-1-ol], for which the 50% effective concentration (EC50) came out at 23.7 µM.

Turning to `OC1(C2c3ccccc3-c3cncn32)CC(F)(F)C1` (stereo not drawn) [Example 50, 3,3-difluoro-1-(5H-imidazo[5,1-a]isoindol-5-yl)cyclobutan-1-ol], the EC50 is 2.6 µM.

Consider `O[C@@H]1c2ccnn2CC[C@@H]1[C@@H]1c2ccccc2-c2cncn21` [Example 56c, (4S,5R)-5-((R)-5H-imidazo[5,1-a]isoindol-5-yl)-4,5,6,7-tetrahydropyrazolo[1,5-a]pyridin-4-ol], for which the EC50 was > 25 µM.

In the case of `O[C@H]1c2ccnn2CC[C@@H]1[C@@H]1c2ccccc2-c2cncn21` [Example 56d, (4R,5R)-5-((R)-5H-imidazo[5,1-a]isoindol-5-yl)-4,5,6,7-tetrahydropyrazolo[1,5-a]pyridin-4-ol], the EC50 is > 25 µM.

Regarding `O[C@H]1c2ccnn2CC[C@H]1[C@H]1c2ccccc2-c2cncn21` [Example 56e, (4R,5S)-5-((S)-5H-imidazo[5,1-a]isoindol-5-yl)-4,5,6,7-tetrahydropyrazolo[1,5-a]pyridin-4-ol], the EC50 was 0.76 µM.

Regarding `O[C@@H]1[C@@H]([C@H]2c3ccccc3-c3cncn32)CC12CCOCC2` [Example 57a, (1R,2R)-2-((S)-5H-imidazo[5,1-a]isoindol-5-yl)-7-oxaspiro[3.5]nonan-1-ol], the EC50 was 11 µM.
